The record followed here is paper PMC6639804 (The Biochemical journal, 2018).

The target of the assay is T1, Cnx1E (Arabidopsis thaliana, UniProt Q39054).
T1 sequence (Q39054 1-452): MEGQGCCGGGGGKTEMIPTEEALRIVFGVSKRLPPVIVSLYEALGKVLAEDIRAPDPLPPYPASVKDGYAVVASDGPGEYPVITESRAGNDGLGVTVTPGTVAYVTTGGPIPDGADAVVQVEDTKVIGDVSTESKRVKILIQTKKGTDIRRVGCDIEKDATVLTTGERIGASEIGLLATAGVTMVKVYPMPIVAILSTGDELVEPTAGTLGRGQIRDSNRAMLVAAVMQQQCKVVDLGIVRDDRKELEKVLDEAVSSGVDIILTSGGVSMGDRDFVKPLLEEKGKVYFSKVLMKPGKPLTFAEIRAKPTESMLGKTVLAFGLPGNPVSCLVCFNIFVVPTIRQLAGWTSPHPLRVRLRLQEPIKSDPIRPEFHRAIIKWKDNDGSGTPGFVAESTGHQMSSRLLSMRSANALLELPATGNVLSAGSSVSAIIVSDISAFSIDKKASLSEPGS
Briefly: co-purified ligand, FormA-based HPLC. The class given is binding. The settings on record: co-purified from E. coli RK5206, not added; phosphodiesterase I treated sample.

Take `Nc1nc2c(c(=O)[nH]1)N[C@H]1C(S)=C(S)[C@@H](COP(=O)(O)OP(=O)(O)OC[C@H]3O[C@@H](n4cnc5c(N)ncnc54)[C@H](O)[C@@H]3O)O[C@H]1N2` [MPT-AMP]: the binding stoichiometry is 0.0136 +/− 0.0048.
